Results published in US9221784B2, “Benzo[1,3]dioxine derivatives and their use as LPAR5 antagonists” (SANOFI, priority 2012, dated 2015).

How the values were obtained:
Assay type in all cases: cell-based
LPA receptor LPAR5 [1] = molecular target: T1, LPA receptor LPAR5 (Homo sapiens, UniProt Q9H1C0); test: FLIPR assay, intracellular Ca2+ release in human mast cell line HMC-1; parameters: two cell lines were used with high LPAR5 expression; endogenous in cells; host or cells: HMC-1 human mast cell line; settings: human mast cell line HMC-1, LPA-stimulated Ca2+ release, test compounds added 10 minutes prior LPA
T1 sequence (Q9H1C0 whole entry): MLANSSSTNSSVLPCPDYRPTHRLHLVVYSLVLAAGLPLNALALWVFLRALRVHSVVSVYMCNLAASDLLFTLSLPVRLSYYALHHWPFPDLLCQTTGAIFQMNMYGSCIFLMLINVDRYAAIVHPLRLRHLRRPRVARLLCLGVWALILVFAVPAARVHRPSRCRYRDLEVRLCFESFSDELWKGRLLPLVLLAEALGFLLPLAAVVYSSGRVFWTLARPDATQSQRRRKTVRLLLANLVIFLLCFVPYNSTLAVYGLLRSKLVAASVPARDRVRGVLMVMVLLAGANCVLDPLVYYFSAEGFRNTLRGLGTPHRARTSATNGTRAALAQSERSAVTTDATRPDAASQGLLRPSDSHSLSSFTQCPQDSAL
Description: (§1) B) Use of the Fluorometric Imaging Plate Reader (FLIPR) Assay for the Determination of Intracellular Ca^2+ Release in Human Mast Cell Line HMC-1 and the Murine Microglia Cell Line BV-2
(§2) The ability of the compounds of the formula I to inhibit or bind the LPA receptor LPAR5 can be assessed by determining the intracellular Ca^2+ release in human or animal cells. For the analysis of activating potential of LPA and the inhibitory effects of compounds of the formula I two cell lines were used with high LPAR5 expression, the human mast cell line HMC-1 and the murine microglia cell line BV-2 (Figures 1 and 2). For the FLIPR assay using human mast cells in a 96-well-format, HMC-1 suspension cells from flask culture were harvested, resuspended and counted. 14×10^6 HMC-1 cells were transferred into a new 50 ml tube, centrifuged for 3 minutes at 540×g. The resulting cell pellet at the bottom of the tube was resuspended with 15 ml loading buffer (loading buffer contained HBSS buffer (pH 7.4), 0.1% BSA (bovine serum albumin), 2 μM FLUO-4 dye; HBSS buffer (pH 7.4) contained 1×HBSS, 20 mM HEPES, 0.01% Pluronic F-127, 2.5 mM Probenicid).
Cells in loading buffer were incubated for 45-60 minutes at 37° C. After incubation cells were centrifuged for 3 minutes at 540×g and resuspended with 21 ml of HBSS buffer (pH 7.4). Each well of a poly-D-lysine coated 96-well-plate was filled with 150 μl cell solution, an equivalent of 100 000 cells/well. The 96-well-plate was centrifuged for 2 minutes at 100×g (without brake) prior a recovery time of 30 minutes at 37° C. After this procedure cells were stimulated with LPA (in HBSS pH 7.4 and 0.1% BSA) to determine the EC50 of LPA in HMC-1 cells. For the determination of the inhibitory effect of compounds of the formula I, test compounds were added to the cells in the 96-well-plate 10 minutes prior the addition of LPA. Results of the assay are expressed as % activation, and are calculated using maximum peak of activation (Amax). The IC50 data of the above described FLIPR assay using human mast cell line HMC-1 for exemplary compounds of the present invention are shown in Table 2. Adherent BV-2 cells were seeded onto poly-D-lysine coated 96-well-plates (100000 cells/well) the day before performing the FLIPR assay. The density of the cells in the 96-well-plate at the day of the FLIPR assay should be 90%. After aspiration of the culture media, BV-2 cells were incubated for 30 minutes at 37° C. with loading buffer and recovered in 150 μl HBSS buffer for 30 minutes at 37° C. After this procedure cells were stimulated with LPA (in HBSS pH 7.4 and 0.1% BSA) to determine the EC50 of LPA in BV-2 cells. For the determination of the inhibitory effect of compounds of the formula I, test compounds were added to the cells in the 96-well-plate 10 minutes prior the addition of LPA. The IC50 data of the above described FLIPR assay using the murine microglia cell line BV-2 for exemplary compounds of the present invention are shown in Table 3.

LPA receptor LPAR5 [2] = molecular target: T2, LPA receptor LPAR5 (Mus musculus, UniProt Q149R9); test: FLIPR assay, intracellular Ca2+ release in murine microglia cell line BV-2; settings: murine microglia cell line BV-2, LPA-stimulated Ca2+ release, test compounds added 10 minutes prior LPA
T2 construct: two cell lines were used with high LPAR5 expression; endogenous in cells; host or cells: BV-2 murine microglia cell line
T2 sequence (Q149R9 whole entry): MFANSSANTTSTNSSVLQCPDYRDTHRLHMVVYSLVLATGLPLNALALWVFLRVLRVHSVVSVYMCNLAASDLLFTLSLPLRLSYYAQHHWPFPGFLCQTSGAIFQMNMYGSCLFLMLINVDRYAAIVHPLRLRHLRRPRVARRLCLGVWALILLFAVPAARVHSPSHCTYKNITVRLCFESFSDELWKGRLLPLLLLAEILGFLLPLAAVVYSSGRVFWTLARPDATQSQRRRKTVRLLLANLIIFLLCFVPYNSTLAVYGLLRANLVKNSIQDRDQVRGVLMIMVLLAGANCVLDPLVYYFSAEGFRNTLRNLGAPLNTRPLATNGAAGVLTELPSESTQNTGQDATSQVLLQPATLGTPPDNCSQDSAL
Description: as §1, §2
Cells in loading buffer were incubated for 45-60 minutes at 37° C. After incubation cells were centrifuged for 3 minutes at 540×g and resuspended with 21 ml of HBSS buffer (pH 7.4). Each well of a poly-D-lysine coated 96-well-plate was filled with 150 μl cell solution, an equivalent of 100 000 cells/well. The 96-well-plate was centrifuged for 2 minutes at 100×g (without brake) prior a recovery time of 30 minutes at 37° C. After this procedure cells were stimulated with LPA (in HBSS pH 7.4 and 0.1% BSA) to determine the EC50 of LPA in HMC-1 cells. For the determination of the inhibitory effect of compounds of the formula I, test compounds were added to the cells in the 96-well-plate 10 minutes prior the addition of LPA. Results of the assay are expressed as % activation, and are calculated using maximum peak of activation (Amax). […]

LPA receptor LPAR5 [3] = molecular target: T1, LPA receptor LPAR5; test: Aggregation assay for washed human blood platelets (LPA-induced); settings: reduction of the maximal aggregation, 5 minutes incubation at 37° C.
Procedure: A) Aggregation Assay for Washed Human Blood Platelets (Thrombocytes)
Whole blood was collected from healthy volunteers using 3×20 ml syringes containing each 1/10 volume of buffered citrate. The anticoagulated whole blood was transferred into 50 ml polypropylene conical tubes (30 ml per tube). The tubes were centrifuged for 10 minutes at 150×g at room temperature without using the centrifuge brake. This procedure results in a lower phase of cellular components and a supernatant (upper phase) of platelet rich plasma (PRP). The PRP phase was collected from each tube and pooled for each donor. To avoid carry over of cellular components following first centrifugation, approximately 5 ml of PRP was left in the tube. The platelet concentration was determined using a ABX Micros 60 counter. The PRP phase was transferred to a new 50 ml tube. After 10 minutes standing at room temperature, 1 μl PGI2 (1 mM in Tris-HCl/pH 8.8) and 180 μl ACD/A were added per ml PRP. The PRP was then transferred to new 10 ml tube and centrifuged for 10 minutes at 500×g. After centrifugation a cellular pellet is visible at the bottom of the tube. The supernatant was carefully discarded and the cellular pellet, consisting of human blood platelets was then dissolved in 10 ml buffer T (buffer T composition: 145 mM NaCl, 5 mM KCl, 0.1 mM MgCl2×6 H2O, 15 mM HEPES, 5.5 mM glucose, pH 7.4). Platelet concentration in this solution was determined and buffer T was added to obtain a final concentration of 3.5×10^5 platelets per ml.
After 10 minutes at room temperature, 1 μl PGI2 per ml platelet solution was added and distributed into new 10 ml tubes. After a centrifugation step, 10 minutes at 500×g, supernatant was discarded and the platelets were resuspended in buffer T to a final concentration of 3.5×10^5 platelets per ml buffer T. Before use, platelet-containing buffer equilibrated for 30 minutes at room temperature. The human platelet aggregation assay was performed in single use cuvettes using the Platelet Aggregation Profiler® (PAP-4 or -8E, BIO/DATA Corporation). For a single experiment, 320 μl of platelet solution were transferred into an assay cuvette, 20 μl of calcium citrate solution (10 mM in H2O) and 20 μl of fibrinogen solution (20 mg/ml H2O) were added. The aggregation assay was performed in the assay cuvette at 37° C. and with 1.200 rpm stirring. To determine the EC50, eight assay cuvettes were loaded as described above with different concentrations of LPA. Aggregation was measured over 6 minutes at 37° C. with 1200 rpm (revolutions per minute) stirring. Results of the assay are expressed as % activation, and are calculated using maximum aggregation (Tmax) or area under curve (AUC) of the absorbance over 6 minutes. The inhibitory effect (IC50) of the test compounds was determined as the reduction of the maximal aggregation. Test compound was added prior starting the experiment with an incubation time of the test compound of 5 minutes at 37° C. with 1200 rpm stirring. The IC50 data of the above described platelet aggregation assay using human washed platelets for exemplary compounds of the present invention are shown in Table 1.

In the case of `O=c1[nH]c(C2Oc3ccc(Cl)cc3C(C3CCCCC3)(C3CCCCC3)O2)no1` (centres unmarked) [Example 61, 3-(6-Chloro-4,4-dicyclohexyl-4H-benzo[1,3]dioxin-2-yl)-4H-[1,2,4]oxadiazol-5-one], the IC50 (LPA receptor LPAR5 [1]) is reported as 3.2 µM.
With `COc1cc(OC)c2c(c1)OC(C(=O)O)OC2(C1CCCCC1)C1CCCCC1` (centres unmarked) [Example 7, 4,4-Dicyclohexyl-5,7-dimethoxy-4H-benzo[1,3]dioxine-2-carboxylic acid] the IC50 (LPA receptor LPAR5 [1]) was 4.4 µM.
Work on `O=C(O)C1Oc2ccc(Cl)cc2C(C2CCCCC2)(C2CCCCC2)O1` (centres unmarked) [Example 1, 6-Chloro-4,4-dicyclohexyl-4H-benzo[1,3]dioxine-2-carboxylic acid] yielded an IC50 (LPA receptor LPAR5 [1]) of 3.2 µM, an IC50 (LPA receptor LPAR5 [2]) of 4.1 µM and an IC50 (LPA receptor LPAR5 [3]) of 1.1 µM.
Compound `O=C(O)C1Oc2ccc(Oc3ccc(Cl)cc3)cc2C(C2CCCCC2)(C2CCCCC2)O1` (centres unmarked) [Example 22, 6-(4-Chloro-phenoxy)-4,4-dicyclohexyl-4H-benzo[1,3]dioxine-2-carboxylic acid] has an IC50 (LPA receptor LPAR5 [1]) of 2.6 µM.
`CCN(CC)c1ccc2c(c1)OC(C(=O)O)OC2(C1CCCCC1)C1CCCCC1` (centres unmarked) [Example 49, 4,4-Dicyclohexyl-7-diethylamino-4H-benzo[1,3]dioxine-2-carboxylic acid] gave an IC50 (LPA receptor LPAR5 [1]) of 3.6 µM and an IC50 (LPA receptor LPAR5 [3]) of 2.7 µM.
`O=c1[nH]nc(C2Oc3ccc(Cl)cc3C(C3CCCCC3)(C3CCCCC3)O2)o1` (centres unmarked) [Example 63, 5-(6-Chloro-4,4-dicyclohexyl-4H-benzo[1,3]dioxin-2-yl)-3H-[1,3,4]oxadiazol-2-one] gave an IC50 (LPA receptor LPAR5 [1]) of 7.7 µM.
In the case of `Cc1cccc2c1OC(C(=O)O)OC2(C1CCCCC1)C1CCCCC1` (centres unmarked) [Example 12, 4,4-Dicyclohexyl-8-methyl-4H-benzo[1,3]dioxine-2-carboxylic acid], the IC50 (LPA receptor LPAR5 [2]) is reported as 8 µM.
Work on `COc1cc(C)c2c(c1)OC(C(=O)O)OC2(C1CCCCC1)C1CCCCC1` (centres unmarked) [Example 36, 4,4-Dicyclohexyl-7-methoxy-5-methyl-4H-benzo[1,3]dioxine-2-carboxylic acid] yielded an IC50 (LPA receptor LPAR5 [3]) of 2.4 µM.
For `Clc1ccc2c(c1)C(C1CCCCC1)(C1CCCCC1)OC(c1nnn[nH]1)O2` (centres unmarked) [Example 60, 5-(6-Chloro-4,4-dicyclohexyl-4H-benzo[1,3]dioxin-2-yl)-1H-tetrazole], the IC50 (LPA receptor LPAR5 [1]) was 3.6 µM.
Compound `CCCCOc1ccc2c(c1)OC(C(=O)O)OC2(C1CCCCC1)C1CCCCC1` (centres unmarked) [Example 31, 7-Butoxy-4,4-dicyclohexyl-4H-benzo[1,3]dioxine-2-carboxylic acid] has an IC50 (LPA receptor LPAR5 [1]) of 5.2 µM.
With `O=C(O)C1Oc2cc(-n3cccc3)ccc2C(C2CCCCC2)(C2CCCCC2)O1` (centres unmarked) [Example 2, 4,4-Dicyclohexyl-7-pyrrol-1-yl-4H-benzo[1,3]dioxine-2-carboxylic acid] the IC50 (LPA receptor LPAR5 [1]) was 3.4 µM.
Work on `O=C(O)C1Oc2ccc3c(c2C(C2CCCCC2)(C2CCCCC2)O1)CCCC3` (centres unmarked) [Example 45, 1,1-Dicyclohexyl-7,8,9,10-tetrahydro-1H-naphtho[2,1-d][1,3]dioxine-3-carboxylic acid] yielded an IC50 (LPA receptor LPAR5 [1]) of 3.1 µM.
`O=C(O)C1Oc2c(Cl)cc(Cl)cc2C(C2CCCCC2)(C2CCCCC2)O1` (centres unmarked) [Example 32, 6,8-Dichloro-4,4-dicyclohexyl-4H-benzo[1,3]dioxine-2-carboxylic acid] was tested, and the IC50 (LPA receptor LPAR5 [1]) was 3.5 µM.
With `O=C(O)C1Oc2ccc(Cl)cc2C(C2CCCCCC2)(C2CCCCCC2)O1` (centres unmarked) [Example 55, 6-Chloro-4,4-dicycloheptyl-4H-benzo[1,3]dioxine-2-carboxylic acid] the IC50 (LPA receptor LPAR5 [1]) was 2.4 µM.
`CCOc1cccc2c1C(C1CCCCC1)(C1CCCCC1)OC(C(=O)O)O2` (centres unmarked) [Example 30, 4,4-Dicyclohexyl-5-ethoxy-4H-benzo[1,3]dioxine-2-carboxylic acid] was tested, and the IC50 (LPA receptor LPAR5 [3]) was 5.9 µM.
In the case of `Cc1cc2c(cc1Cl)C(C1CCCCC1)(C1CCCCC1)OC(C(=O)O)O2` (centres unmarked) [Example 43, 6-Chloro-4,4-dicyclohexyl-7-methyl-4H-benzo[1,3]dioxine-2-carboxylic acid], the IC50 (LPA receptor LPAR5 [1]) is reported as 3.3 µM.
With `O=C(O)C1Oc2cc(OCc3ccccc3)ccc2C(C2CCCCC2)(C2CCCCC2)O1` (centres unmarked) [Example 37, 7-Benzyloxy-4,4-dicyclohexyl-4H-benzo[1,3]dioxine-2-carboxylic acid] the IC50 (LPA receptor LPAR5 [1]) was 3.6 µM and the IC50 (LPA receptor LPAR5 [3]) was 11.3 µM.
In the case of `O=C(O)C1Oc2ccc(-c3ccccc3)cc2C(C2CCCCC2)(C2CCCCC2)O1` (centres unmarked) [Example 35, 4,4-Dicyclohexyl-6-phenyl-4H-benzo[1,3]dioxine-2-carboxylic acid], the IC50 (LPA receptor LPAR5 [1]) is reported as 3.8 µM.
Compound `O=C(O)C1Oc2c(OC(F)(F)F)cccc2C(C2CCCCC2)(C2CCCCC2)O1` (centres unmarked) [Example 46, 4,4-Dicyclohexyl-8-trifluoromethoxy-4H-benzo[1,3]dioxine-2-carboxylic acid] has an IC50 (LPA receptor LPAR5 [1]) of 3.2 µM and an IC50 (LPA receptor LPAR5 [3]) of 5.4 µM.
`O=C(c1ccc(Cl)cc1)c1ccc2c(c1)C(C1CCCCC1)(C1CCCCC1)OC(C(=O)O)O2` (centres unmarked) [Example 26, 6-(4-Chloro-benzoyl)-4,4-dicyclohexyl-4H-benzo[1,3]dioxine-2-carboxylic acid] showed an IC50 (LPA receptor LPAR5 [1]) of 3.4 µM.
With `O=C(O)C1Oc2ccc(Br)cc2C(C2CCCCC2)(C2CCCCC2)O1` (centres unmarked) [Example 50, 6-Bromo-4,4-dicyclohexyl-4H-benzo[1,3]dioxine-2-carboxylic acid] the IC50 (LPA receptor LPAR5 [1]) was 2.5 µM.
`O=C(O)C1Oc2ccc(OC(F)(F)F)cc2C(C2CCCCC2)(C2CCCCC2)O1` (centres unmarked) [Example 18, 4,4-Dicyclohexyl-6-trifluoromethoxy-4H-benzo[1,3]dioxine-2-carboxylic acid] gave an IC50 (LPA receptor LPAR5 [1]) of 1.5 µM and an IC50 (LPA receptor LPAR5 [2]) of 1.5 µM.
`O=C(O)C1Oc2ccc3ccccc3c2C(C2CCCCC2)(C2CCCCC2)O1` (centres unmarked) [Example 33, 1,1-Dicyclohexyl-1H-naphtho[2,1-d][1,3]dioxine-3-carboxylic acid] showed an IC50 (LPA receptor LPAR5 [1]) of 3.3 µM.
